Measurements as given in BigSolDB 2.1.

For `OC[C@@H](O)CN1CCN(c2ccccc2)CC1`, the solubility (mole fraction) (in n-butyl acetate, 303.1 K) was 0.000937, the solubility (mole fraction) (in n-butyl acetate, 308.1 K) was 0.00122 and the solubility (mole fraction) (in n-butyl acetate, 313.1 K) was 0.00156. It also gave a solubility (mole fraction) (in n-butyl acetate, 318.1 K) of 0.00207, a solubility (mole fraction) (in n-butyl acetate, 323.1 K) of 0.00266 and a solubility (mole fraction) (in n-heptanol, 283.1 K) of 0.000771. It also gave a solubility (mole fraction) (in n-heptanol, 288.1 K) of 0.00104, a solubility (mole fraction) (in n-heptanol, 293.1 K) of 0.00135 and a solubility (mole fraction) (in n-heptanol, 298.1 K) of 0.0018. For the same molecule, the solubility (mole fraction) (in n-heptanol, 303.1 K) was 0.0023, the solubility (mole fraction) (in n-heptanol, 308.1 K) was 0.00297 and the solubility (mole fraction) (in n-heptanol, 313.1 K) was 0.00381. The solubility (mole fraction) (in n-heptanol, 318.1 K) was 0.00492, the solubility (mole fraction) (in n-heptanol, 323.1 K) was 0.00628 and the solubility (mole fraction) (in n-hexanol, 283.1 K) was 0.000816. The solubility (mole fraction) (in n-hexanol, 288.1 K) was 0.00108, the solubility (mole fraction) (in n-hexanol, 293.1 K) was 0.00139 and the solubility (mole fraction) (in n-hexanol, 298.1 K) was 0.00181. For the same molecule, the solubility (mole fraction) (in n-hexanol, 303.1 K) was 0.00235, the solubility (mole fraction) (in n-hexanol, 308.1 K) was 0.00304 and the solubility (mole fraction) (in n-hexanol, 313.1 K) was 0.00393. The solubility (mole fraction) (in n-hexanol, 318.1 K) was 0.00503, the solubility (mole fraction) (in n-hexanol, 323.1 K) was 0.00651 and the solubility (mole fraction) (in n-pentanol, 283.1 K) was 0.000634. The solubility (mole fraction) (in n-pentanol, 288.1 K) was 0.000945, the solubility (mole fraction) (in n-pentanol, 293.1 K) was 0.00128 and the solubility (mole fraction) (in n-pentanol, 298.1 K) was 0.00163. It also gave a solubility (mole fraction) (in n-pentanol, 303.1 K) of 0.00217, a solubility (mole fraction) (in n-pentanol, 308.1 K) of 0.00285 and a solubility (mole fraction) (in n-pentanol, 313.1 K) of 0.00372. The solubility (mole fraction) (in n-pentanol, 318.1 K) was 0.00493, the solubility (mole fraction) (in n-pentanol, 323.1 K) was 0.00646 and the solubility (mole fraction) (in n-pentyl acetate, 283.1 K) was 0.000316. For the same molecule, the solubility (mole fraction) (in n-pentyl acetate, 288.1 K) was 0.000391, the solubility (mole fraction) (in n-pentyl acetate, 293.1 K) was 0.000525 and the solubility (mole fraction) (in n-pentyl acetate, 298.1 K) was 0.000678. It also gave a solubility (mole fraction) (in n-pentyl acetate, 303.1 K) of 0.000888, a solubility (mole fraction) (in n-pentyl acetate, 308.1 K) of 0.00114 and a solubility (mole fraction) (in n-pentyl acetate, 313.1 K) of 0.0015. For the same molecule, the solubility (mole fraction) (in n-pentyl acetate, 318.1 K) was 0.00194, the solubility (mole fraction) (in n-pentyl acetate, 323.1 K) was 0.0025 and the solubility (mole fraction) (in n-propanol, 283.1 K) was 0.000721. It also gave a solubility (mole fraction) (in n-propanol, 288.1 K) of 0.000943, a solubility (mole fraction) (in n-propanol, 293.1 K) of 0.0012 and a solubility (mole fraction) (in n-propanol, 298.1 K) of 0.00157. The solubility (mole fraction) (in n-propanol, 303.1 K) was 0.00207, the solubility (mole fraction) (in n-propanol, 308.1 K) was 0.00277 and the solubility (mole fraction) (in n-propanol, 313.1 K) was 0.00369. The solubility (mole fraction) (in n-propanol, 318.1 K) was 0.00501, the solubility (mole fraction) (in n-propanol, 323.1 K) was 0.00656 and the solubility (mole fraction) (in n-propyl acetate, 283.1 K) was 0.000351. It also gave a solubility (mole fraction) (in n-propyl acetate, 288.1 K) of 0.000469, a solubility (mole fraction) (in n-propyl acetate, 293.1 K) of 0.000613 and a solubility (mole fraction) (in n-propyl acetate, 298.1 K) of 0.000803. The solubility (mole fraction) (in n-propyl acetate, 303.1 K) was 0.00103, the solubility (mole fraction) (in n-propyl acetate, 308.1 K) was 0.00132 and the solubility (mole fraction) (in n-propyl acetate, 313.1 K) was 0.00173. It also gave a solubility (mole fraction) (in n-propyl acetate, 318.1 K) of 0.00222 and a solubility (mole fraction) (in n-propyl acetate, 323.1 K) of 0.00293.
